Experimental data taken from PubChem BioAssay AID1963968 (Molecular Pharmacology Branch, DTP, NCI, 2024).

Tested on: 945468-187-T-J3-PDC spheroids with HUVEC/MSC, viability
Assay: Anticancer human tumor 945468-187-T-J3-PDC patient-derived rectal carcinoma cell line growth inhibition [PI3K]
Conditions: for IC50: curve of first compound; for viability, T/C: stronger effect = lower value
Outline: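 Stroma-containing spheroids: tumor line, pooled-donor HUVEC, hMSC. Treatments: targeted agents with PI3K inhibitors. Dosing: clinically relevant, half-log spacing, 10 microM ceiling without known Cmax. Read-out: cell viability.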

[1] = second compound 0.0316 µM, first compound 0.0316 µM
[2] = second compound 0.0316 µM, first compound 0.1 µM
[3] = second compound 0.0316 µM, first compound 0.316 µM
[4] = second compound 0.0316 µM, first compound 1 µM
[5] = second compound 0.1 µM, first compound 0.0316 µM
[6] = second compound 0.1 µM, first compound 0.1 µM
[7] = second compound 0.1 µM, first compound 0.316 µM
[8] = second compound 0.1 µM, first compound 1 µM
[9] = second compound 0.316 µM, first compound 0.0316 µM
[10] = second compound 0.316 µM, first compound 0.1 µM
[11] = second compound 0.316 µM, first compound 0.316 µM
[12] = second compound 0.316 µM, first compound 1 µM
[13] = second compound 1 µM, first compound 0.0316 µM
[14] = second compound 1 µM, first compound 0.1 µM
[15] = second compound 1 µM, first compound 0.316 µM
[16] = second compound 1 µM, first compound 1 µM
[17] = second compound 3.16 µM, first compound 0.0316 µM
[18] = second compound 3.16 µM, first compound 0.1 µM
[19] = second compound 3.16 µM, first compound 0.316 µM
[20] = second compound 3.16 µM, first compound 1 µM
[21] = second compound 10 µM, first compound 0.0316 µM
[22] = second compound 10 µM, first compound 0.1 µM
[23] = second compound 10 µM, first compound 0.316 µM
[24] = second compound 10 µM, first compound 1 µM
[25] = second compound 0.0316 µM, first compound 3.16 µM
[26] = second compound 0.0316 µM, first compound 10 µM
[27] = second compound 0.1 µM, first compound 3.16 µM
[28] = second compound 0.1 µM, first compound 10 µM
[29] = second compound 0.316 µM, first compound 3.16 µM
[30] = second compound 0.316 µM, first compound 10 µM
[31] = second compound 1 µM, first compound 3.16 µM
[32] = second compound 1 µM, first compound 10 µM
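Further: spheroids exposed to agents for 7 days before viability read.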
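Wherever viability, T/C is given: 100% = DMSO vehicle control viability.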

`CCN1CCN(Cc2ccc(Nc3ncc(F)c(-c4cc(F)c5nc(C)n(C(C)C)c5c4)n3)nc2)CC1` + Cc1nc(NC(=O)N2CCCC2C(N)=O)sc1-c1ccnc(C(C)(C)C(F)(F)F)c1 showed an IC50 (second compound 0.0316 µM) of over 1000 nM, an IC50 (second compound 0.1 µM) of over 1000 nM and an IC50 (second compound 0.316 µM) of over 1000 nM. The IC50 (second compound 1 µM) was 735 nM, the IC50 (second compound 3.16 µM) was 299 nM and the IC50 (second compound 10 µM) was 35.5 nM. It also gave a viability, T/C (second compound 0.0316 µM, first compound 0.00316 µM) of 83.5%, a viability, T/C (second compound 0.0316 µM, first compound 0.01 µM) of 103% and a viability, T/C [1] of 95.6%. The viability, T/C [2] was 105%, the viability, T/C [3] was 115% and the viability, T/C [4] was 105%. The viability, T/C (second compound 0.1 µM, first compound 0.00316 µM) was 87.8%, the viability, T/C (second compound 0.1 µM, first compound 0.01 µM) was 97.9% and the viability, T/C [5] was 107%. For the same compound, the viability, T/C [6] was 103%, the viability, T/C [7] was 121% and the viability, T/C [8] was 102%. It also gave a viability, T/C (second compound 0.316 µM, first compound 0.00316 µM) of 97%, a viability, T/C (second compound 0.316 µM, first compound 0.01 µM) of 96.2% and a viability, T/C [9] of 95.6%. For the same compound, the viability, T/C [10] was 107%, the viability, T/C [11] was 113% and the viability, T/C [12] was 53.5%. For the same compound, the viability, T/C (second compound 1 µM, first compound 0.00316 µM) was 102%, the viability, T/C (second compound 1 µM, first compound 0.01 µM) was 103% and the viability, T/C [13] was 101%. It also gave a viability, T/C [14] of 106%, a viability, T/C [15] of 90.3% and a viability, T/C [16] of 35.2%. For the same compound, the viability, T/C (second compound 3.16 µM, first compound 0.00316 µM) was 107%, the viability, T/C (second compound 3.16 µM, first compound 0.01 µM) was 97.5% and the viability, T/C [17] was 88.9%. For the same compound, the viability, T/C [18] was 99.3%, the viability, T/C [19] was 47.5% and the viability, T/C [20] was 26.9%. For the same compound, the viability, T/C (second compound 10 µM, first compound 0.00316 µM) was 65.6%, the viability, T/C (second compound 10 µM, first compound 0.01 µM) was 59.4% and the viability, T/C [21] was 45.6%. For the same compound, the viability, T/C [22] was 45.8%, the viability, T/C [23] was 35.2% and the viability, T/C [24] was 23.7%.

With `CNC(=O)c1ccc(N2C(=S)N(c3ccc(C#N)c(C(F)(F)F)c3)C(=O)C2(C)C)cc1F` + Cc1nc(NC(=O)N2CCCC2C(N)=O)sc1-c1ccnc(C(C)(C)C(F)(F)F)c1 the IC50 (second compound 0.0316 µM) was over 10000 nM, the IC50 (second compound 0.1 µM) was over 10000 nM and the IC50 (second compound 0.316 µM) was over 10000 nM. The IC50 (second compound 1 µM) was over 10000 nM, the IC50 (second compound 3.16 µM) was over 10000 nM and the IC50 (second compound 10 µM) was over 10000 nM. The viability, T/C [1] was 102%, the viability, T/C [2] was 108% and the viability, T/C [3] was 96.1%. It also gave a viability, T/C [4] of 115%, a viability, T/C [25] of 107% and a viability, T/C [26] of 104%. The viability, T/C [5] was 108%, the viability, T/C [6] was 106% and the viability, T/C [7] was 99.7%. The viability, T/C [8] was 105%, the viability, T/C [27] was 116% and the viability, T/C [28] was 94.8%. The viability, T/C [9] was 125%, the viability, T/C [10] was 108% and the viability, T/C [11] was 97%. For the same compound, the viability, T/C [12] was 105%, the viability, T/C [29] was 116% and the viability, T/C [30] was 108%. It also gave a viability, T/C [13] of 120%, a viability, T/C [14] of 115% and a viability, T/C [15] of 97.6%. The viability, T/C [16] was 118%, the viability, T/C [31] was 105% and the viability, T/C [32] was 108%. The viability, T/C [17] was 123%, the viability, T/C [18] was 110% and the viability, T/C [19] was 101%. It also gave a viability, T/C [20] of 112%, a viability, T/C (second compound 3.16 µM, first compound 3.16 µM) of 108% and a viability, T/C (second compound 3.16 µM, first compound 10 µM) of 121%. For the same compound, the viability, T/C [21] was 61.1%, the viability, T/C [22] was 68.6% and the viability, T/C [23] was 59.5%. The viability, T/C [24] was 61.2%, the viability, T/C (second compound 10 µM, first compound 3.16 µM) was 67.9% and the viability, T/C (second compound 10 µM, first compound 10 µM) was 88.5%.

Work on `CC1(C)CCC(Nc2ncc(C(F)(F)F)c(-c3c[nH]c4c(P(C)(C)=O)c(C#N)ccc34)n2)CN1` (stereo unspecified) + COc1c(OCCCN2CCOCC2)ccc2c3n(c(=NC(=O)c4cnc(N)nc4)nc12)CCN3 yielded an IC50 (second compound 0.00316 µM) of 3350 nM, an IC50 (second compound 0.01 µM) of 31.6 nM and an IC50 (second compound 0.0316 µM) of 1250 nM. It also gave an IC50 (second compound 0.1 µM) of under 31.6 nM, an IC50 (second compound 0.316 µM) of under 31.6 nM and an IC50 (second compound 1 µM) of under 31.6 nM. It also gave a viability, T/C (second compound 0.00316 µM, first compound 0.0316 µM) of 55.6%, a viability, T/C (second compound 0.00316 µM, first compound 0.1 µM) of 40.7% and a viability, T/C (second compound 0.00316 µM, first compound 0.316 µM) of 39%. For the same compound, the viability, T/C (second compound 0.00316 µM, first compound 1 µM) was 49.6%, the viability, T/C (second compound 0.00316 µM, first compound 3.16 µM) was 78.7% and the viability, T/C (second compound 0.00316 µM, first compound 10 µM) was 6.58%. For the same compound, the viability, T/C (second compound 0.01 µM, first compound 0.0316 µM) was 45.7%, the viability, T/C (second compound 0.01 µM, first compound 0.1 µM) was 48.1% and the viability, T/C (second compound 0.01 µM, first compound 0.316 µM) was 41.9%. It also gave a viability, T/C (second compound 0.01 µM, first compound 1 µM) of 56%, a viability, T/C (second compound 0.01 µM, first compound 3.16 µM) of 55.7% and a viability, T/C (second compound 0.01 µM, first compound 10 µM) of 5.22%. It also gave a viability, T/C [1] of 56.8%, a viability, T/C [2] of 47.4% and a viability, T/C [3] of 52%. The viability, T/C [4] was 48.1%, the viability, T/C [25] was 46.9% and the viability, T/C [26] was 5.62%. It also gave a viability, T/C [5] of 40.4%, a viability, T/C [6] of 39.2% and a viability, T/C [7] of 34.3%. It also gave a viability, T/C [8] of 35.4%, a viability, T/C [27] of 40.3% and a viability, T/C [28] of 2.67%. It also gave a viability, T/C [9] of 27.9%, a viability, T/C [10] of 26.6% and a viability, T/C [11] of 23.2%. It also gave a viability, T/C [12] of 20.5%, a viability, T/C [29] of 20.8% and a viability, T/C [30] of 5.77%. For the same compound, the viability, T/C [13] was 15.7%, the viability, T/C [14] was 17.2% and the viability, T/C [15] was 17.5%. For the same compound, the viability, T/C [16] was 14.6%, the viability, T/C [31] was 11.4% and the viability, T/C [32] was 0.98%.
